The nature of assay [1]: Antiangiogenic activity against BAEC assessed as inhibition of bFGF-induced cell proliferation in presence of 10% fetal bovine serum after 3 days by MTT assay. Format: functional, Bos taurus. In general terms: Tetrazolium assays rely on reduction of a dye to a coloured formazan, in cell work by metabolically active cells.
A short description of assay [2]: Antiangiogenic activity against BAEC assessed as inhibition of bFGF-induced cell proliferation after 3 days by MTT assay. Format: functional, Bos taurus.
Another assay deals with BAEC. The experiment in a line: Reduction of tube formation in bFGF-induced BAEC at 20 nM by Matrigel based tube formation assay. Format: functional, cell-based. Conditions: Bos taurus, TDE = time-dependent effect.

For the compound `O=C1c2cccc(O)c2C(=O)c2c(O)cccc21` [DANTHRON], the IC50 (in general, the midpoint of a concentration-inhibition curve) came to 20.1 µM in assay [1] and 5.7 µM in assay [2].

As for `Cc1sc2ccc(O)c3c2c1-c1cccc(O)c1C3=O` [BRYOANTHRATHIOPHENE], the IC50 was determined as 0.22 µM in assay [1] and 0.005 µM in assay [2]. Moreover, the Activity result in the assay with BAEC is “tde”.

For the compound `COC(=O)c1sc2ccc(O)c3c2c1-c1cccc(O)c1C3=O`, the half-inhibitory concentration (IC50) in assay [1] turned out to be 25.8 µM; in assay [2] it was 2.2 µM.

Values taken from ChEMBL document CHEMBL1150641, “Bryoanthrathiophene, a new antiangiogenic constituent from the bryozoan Watersipora subtorquata (d'Orbigny, 1852)” (J Nat Prod, 2002).
